Laboratory results published in patent US9161533B2, “Plant pathogen resistance” (priority 2007, dated 2015).
“Also recorded” adds a separate entry of the source.

Columns and labels:
Assay type in all cases: in vivo, Arabidopsis
PR1 expression = test: Priming of PR1 expression after virulent PmaDG3 infection; settings: 1 mM spray 2 days before PmaDG3 (OD600=0.01); vs mock
Description: (§1) Five mM MES or 1 mM azelaic acid in 5 mM MES were applied to leaves of wild-type Col Arabidopsis 2 days prior to inoculation of 10 mM MgSO4 (M), virulent PmaDG3 (V) and avirulent PmaDG6 expressing AvrRpt2 (Av). Leaves were collected at different times after inoculation and endogenous free and total SA level was measured. (B) Relative PR1 expression in leaves of mock-treated plants and azelaic acid-treated plants after virulent PmaDG3 infection. The expression of PR1 is plotted on a log scale. The number of asterisks indicates samples that were different from one another at given levels of statistical significance (*p<0.075, **p<0.05, ***p<0.01).
Since SA signaling mutants were compromised in responding to azelaic acid, it was investigated whether azelaic acid might prime SA synthesis or SA-dependent defense responses in plants. To test this, plants were sprayed with 1 mM azelaic acid (or 5 mM MES) and after two days infected with virulent PmaDG3 and avirulent PmaDG6 (carrying avrRpt2) (OD600=0.01). […] The priming effect by azelaic acid was also investigated by analyzing PR1 expression, a molecular marker for SA signaling (FIG. 6B). Mock- and azelaic acid-treated plants were infected with virulent PmaDG3 (OD600=0.01) 2 days after spray treatments. PR1 expression was increased in both azelaic acid treated and untreated plants after infection with the virulent strain. […]

plant cell = test: Toxicity of azelaic acid to plant cell; settings: 1 mM in 5 mM MES (pH 5.6)
Description: (§2) Biological activity of azelaic acid in inducing disease resistance. 1 mM azelaic acid was infiltrated into leaves 3 and 4 of 3-week old plants. Two days later, plants were inoculated with virulent PmaDG3 onto leaves 3 and 4 or in the upper leaves, which were not pre-treated with azelaic acid (systemic leaves). Azelaic acid (1 mM) dissolved in 5 mM MES (pH 5.6) was not toxic to plant cell. […] Mock-treated and azelaic acid-treated plants were also infiltrated with avirulent derivatives of P. syringae pv. maculicola carrying avrRpt2 (PmaDG6) or avrRpm1 (PmaDG34).

defense-related genes = test: Defense-related gene expression after azelaic acid treatment (mini array, RT-PCR)
Description: (§3) (A) Time course of free and total salicylic acid levels in leaves of Col after spray treatments with 5 mM MES (black bars) and 1 mM azelaic acid in 5 mM MES (white bars). (B) Camalexin levels in leaves of Col after azelaic acid treatment by spraying. Each experiment in (A) and (B) was performed with three different samples and the experiments were repeated three times. (C) Expression of an LTP gene (At2g38530) was elevated after azelaic acid treatment performed as in (A), however expression of PR1 and many other defense-related genes was unaffected. RT-PCR (23 cycles) was used to assess gene expression, with EF1a serving as a loading control.
(§4) Since resistance to P. syringae requires activation of SA-dependent defenses accompanied by elevated endogenous SA levels, it was investigated whether azelaic acid directly induces SA accumulation. […] Additionally, the levels of the phytoalexin Camalexin, a defense metabolite, were similar in azelaic acid-treated and mock-treated plants (FIG. 5B). […] To investigate whether azelaic acid might affect additional defense markers, expression of defense-related genes was monitored using a mini array. […] RT-PCR confirmed that At2g38530 was induced by azelaic acid. However, PR1, a SA signaling marker, was not induced by azelaic acid. Thus, azelaic acid appears not to induce large changes in known signaling pathways activated by P. syrinagae, but does induce at least one defense-related gene.

[1] = system: salicylic acid and camalexin levels; test: Endogenous salicylic acid and camalexin levels after azelaic acid spray; settings: 1 mM spray, no infection, vs mock
Description: as §3
as §4, with “Thus, azelaic acid appears not to induce large changes in known signaling pathways activated by P. syrinagae, but does induce at least one defense-related gene.” left out

[2] = system: PmaDG6 (PmaDG3 carrying avrRpt2); test: Growth of avirulent PmaDG6 in azelaic acid-pretreated leaves; settings: 1 mM pretreatment
Description: (§5) (A) Local and systemic resistance response by azelaic acid treatment against virulent PmaDG3 infections. Local or systemic leaves of 21˜23-day-old plants were treated with 5 mM MES (pH 5.6) (black bars) or 1 mM azelaic acid in 5 mM MES (pH 5.6, white bars) 2 days prior to challenge with the virulent PmaDG3 strain (OD600=0.0001). MES and azelaic acid were introduced into leaves by syringe-infiltration. […] (B) Growth of avirulent strains PmaDG6 (PmaDG3 carrying avrRpt2) and PmaDG34 (PmaDG3 carrying avrRpm1) in leaves of Col pretreated with 5 mM MES (black bars) or 1 mM azelaic acid in 5 mM MES (pH 5.6, white bars). (C) Twenty three-day-old plants were pretreated with 1, 10, 100, and 1000 μM azelaic acid in 5 mM MES or 5 mM MES for 2 days and then subjected to infection with virulent PmaDG3 at OD600=0.0001. […] (D) Plants were treated with 5 mM MES or 1 mM azelaic acid for the indicated times prior to inoculation with virulent PmaDG3. Inoculations with PmaDG3 were performed between noon and 1 pm. Azelaic acid (Aza) in 5 mM MES was applied to plants using a hand-sprayer. The growth of bacteria was measured on day 3 after inoculation. […] (E) Plants were treated and infected as in (D), except that infections were performed between […]. (*p<0.04). These experiments were repeated two to four times to confirm reproducibility.
Biological activity of azelaic acid in inducing disease resistance. […]

virulent PmaDG3 = test: Azelaic acid-induced resistance against virulent PmaDG3 infection
Description: as §5
1 mM azelaic acid in 5 mM MES was applied to wild-type Col, SAR-defective, and SA-deficient mutants (A) and jasmonic acid/ethylene-insensitive mutants (B) 2 days prior to challenge-inoculation of virulent PmaDG3 (OD600=0.0001). […] The experiments were repeated a minimum of three times. The number of asterisks indicates samples that were different from one another at given levels of statistical significance (*p<0.05, **p<0.01).
as §2
PmaDG3 growth was measured after spray treatment of plants with various concentrations of azelaic acid. […] It was also tested whether azelaic acid required a certain induction period for the induced resistance response. […] However, when plants were grown in the dark for 12 hours after treatment, azelaic acid was ineffective at conferring disease resistance (FIG. 3E). […] Thus, azelaic acid induces a light-dependent disease resistance response against infection with P. syringae that is also concentration- and time-dependent.
To further characterize how plants regulate azelaic acid-induced resistance, 1 mM azelaic acid was sprayed onto wild type and several mutant plants 2 days before infection with virulent PmaDG3 and bacterial growth was measured. Unlike wild-type plants, the SA pathway mutants tested were susceptible to virulent PmaDG3 infection regardless of treatment with azelaic acid (FIG. 4A). […] Pathogen resistance was also dependent on […], which is important for SA-induced disease resistance and SAR maintenance in Arabidopsis. The growth of bacteria was also monitored in leaves of JA- and ethylene-insensitive mutants, jar1 and etr1, following treatment with 1 mM azelaic acid.

[3] = system: SA-dependent defense signaling; test: Priming of SA accumulation after Pseudomonas syringae infection
Description: as §1
Since SA signaling mutants were compromised in responding to azelaic acid, it was investigated whether azelaic acid might prime SA synthesis or SA-dependent defense responses in plants. To test this, plants were sprayed with 1 mM azelaic acid (or 5 mM MES) and after two days infected with virulent PmaDG3 and avirulent PmaDG6 (carrying avrRpt2) (OD600=0.01). […] The priming effect by azelaic acid was also investigated by analyzing PR1 expression, a molecular marker for SA signaling (FIG. 6B). Mock- and azelaic acid-treated plants were infected with virulent PmaDG3 (OD600=0.01) 2 days after spray treatments. PR1 expression was increased in both azelaic acid treated and untreated plants after infection with the virulent strain. However, the expression was higher in leaves pretreated with azelaic acid after pathogen infection, compared with expression in mock-treated plants following pathogen infection (note the log scale in FIG. 6B).

## O=C(O)CCCCCCCC(=O)O [azelaic acid]
PR1 expression
  PR1 expression after pathogen infection: higher
Plant cell
  toxicity to plant cell: not toxic
defense-related genes; RT-PCR
  At2g38530 expression by RT-PCR: elevated; also recorded: induced
defense-related genes; azelaic acid alone, no infection
  PR1 expression: unaffected; also recorded: not induced
defense-related genes; mini array
  induction of LTP gene At2g38530: 3 fold
defense-related genes; mini array, vs mock
  expression of most defense-related genes: unaffected; also recorded: no difference in expression
[1]
  Camalexin levels: does not affect; also recorded: similar
  free and total SA level: does not affect; also recorded: no significant difference
[2]
  growth of PmaDG6: reduction in the growth
Virulent PmaDG3; 1 mM hand sprayer, light
  resistance, pretreatment 12 hours prior to pathogen challenge: low level of resistance
Virulent PmaDG3; 1 mM hand sprayer, plants grown in the light
  resistance, pretreatment 6 hours prior to infection: still susceptible
Virulent PmaDG3; 1 mM infiltrated 2 days before PmaDG3 challenge
  disease symptoms: significant reduction in the disease symptoms; also recorded: very little disease symptom development
Virulent PmaDG3; 1 mM infiltrated 2 days before challenge, local and systemic leaves
  growth of PmaDG3: reduction in pathogen growth; also recorded: significantly reduced
Virulent PmaDG3; 1 mM spray
  protection, inoculation 48 h after spraying: Significant protection
Virulent PmaDG3; 1 mM spray, dark
  disease resistance, plants in the dark for 12 hours after treatment: ineffective
Virulent PmaDG3; 1 mM sprayed 2 days before infection
  resistance to PmaDG3 in SAR-defective / SA pathway mutants: did not induce plant resistance; also recorded: susceptible
Virulent PmaDG3; 1 mM, JA- and ethylene-insensitive mutants
  resistance in jar1 and etr1 mutants: did not affect; also recorded: effective in restricting bacterial growth
Virulent PmaDG3; 1 or 10 μM vs 5 mM MES
  bacterial growth: no difference in bacterial growth
Virulent PmaDG3; 100 and 1000 μM pretreatment
  suppression of bacteria growth: 10 fold
Virulent PmaDG3; 100 and 1000 μM pretreatment for 2 days
  resistance to PmaDG3 / growth of bacteria: significant reduction of the growth of bacteria; also recorded: resistant to PmaDG3
[3]; 1 mM spray 2 days before, 6 and 18 hrs after virulent PmaDG3 infection, vs mock, p<0.05
  levels of free SA: significantly higher
[3]; 18 hrs after inoculation with both PmaDG3 and PmaDG6, vs mock, p<0.01
  total SA accumulation: higher level
[3]; after infection with PmaDG6 (carrying avrRpt2)
  levels of free SA: not statistically significant
[3]; vs mock-treated plants
  Endogenous free and total SA levels during Pseudomonas syringae infections: significantly higher
